System: peripheral blood leukocytes of normal mice
Experiment: Effects on peripheral blood leukocytes of normal mice (peripheral blood routine test)
Assay type: in vivo
Details: G-CSF 22.5 ug/kg sc once a day
From the text: Animal hematology analyzer, model: HEMAVET950 • 2. Method
The mice were divided into blank control group, positive control group and the dithiolopyrrolone series of compounds group, there are 10 mice in each group.

[1] = day 0 (before administration), compounds 20 mg/kg ig once a day
[2] = day 3, compounds 20 mg/kg ig once a day
[3] = day 5, compounds 20 mg/kg ig once a day

Compound	NE % (percentage of neutrophils in the total number of white blood cells) [1] [%]	WBC count [1] [L⁻¹]	NE % (percentage of neutrophils in the total number of white blood cells) [2] [%]	WBC count [2] [L⁻¹]	NE % (percentage of neutrophils in the total number of white blood cells) [3] [%]	WBC count [3] [L⁻¹]
COc1ccc(-n2c3cssc-3c(NC(=O)Oc3ccc(Cl)cc3)c2=O)c(OC)c1 [compound 017]	23.24	6.36e+09	28.88	8.67e+09	36.90	8.88e+09
COc1ccc(-n2c3cssc-3c(NC(=O)Oc3cccnc3)c2=O)c(OC)c1 [compound 022]	31.23	6.86e+09	38.98	1.003e+10	47.74	1.211e+10
COc1ccc(-n2c3cssc-3c(NC(=O)OCc3ccco3)c2=O)c(OC)c1 [compound 019]	24.36	6.88e+09	28.89	9.35e+09	29.84	1.087e+10
CCSC(=O)Nc1c2sscc-2n(-c2ccc(OC)cc2OC)c1=O [compound 027]	24.45	8.76e+09	45.46	1.122e+10	48.37	1.254e+10
CCCCCOC(=O)Nc1c2sscc-2n(-c2ccc(OC)cc2OC)c1=O [compound 011]	27.68	8.76e+09	46.65	1.146e+10	51.87	1.188e+10
C=CCOC(=O)Nc1c2sscc-2n(-c2ccc(OC)cc2OC)c1=O [compound 008]	31.56	8.88e+09	60.03	1.779e+10	65.55	1.876e+10
COc1ccc(-n2c3cssc-3c(NC(=O)NCc3ccccc3)c2=O)c(OC)c1 [compound 024]	24.67	7.95e+09	33.98	8.76e+09	42.02	9.71e+09
COc1ccc(OC(=O)Nc2c3sscc-3n(-c3ccc(OC)cc3OC)c2=O)cc1 [compound 010]	20.86	8.87e+09	24.34	1.018e+10	32.34	1.023e+10
COc1ccc(-n2c3cssc-3c(NC(=O)OC3CCCC3)c2=O)c(OC)c1 [compound 014]	20.81	6.78e+09	23.39	1.156e+10	40.40	1.201e+10
COc1ccc(-n2c3cssc-3c(NC(=O)OCC(C)C)c2=O)c(OC)c1 [compound 002]	20.11	8.12e+09	52.13	1.189e+10	68.69	1.678e+10
COc1ccc(-n2c3cssc-3c(NC(=O)Nc3ccccc3)c2=O)c(OC)c1 [compound 026]	28.98	7.84e+09	30.38	8.76e+09	38.63	9.71e+09
COc1ccc(-n2c3cssc-3c(NC(=O)OC(C)c3ccccc3)c2=O)c(OC)c1 (stereo not drawn) [compound 020]	30.03	5.09e+09	38.66	9.61e+09	42.49	1.122e+10
COc1ccc(-n2c3cssc-3c(NC(=O)OCc3ccccc3)c2=O)c(OC)c1 [compound 003]	32.51	7.84e+09	54.34	1.456e+10	68.30	1.744e+10
COc1ccc(-n2c3cssc-3c(NC(=O)Oc3ccc(C)cc3)c2=O)c(OC)c1 [compound 018]	21.74	6.15e+09	23.38	8.59e+09	26.04	9.03e+09
COc1ccc(-n2c3cssc-3c(NC(=O)OCc3cccs3)c2=O)c(OC)c1 [compound 021]	29.78	5.22e+09	36.52	9.93e+09	49.65	1.122e+10
COc1ccc(-n2c3cssc-3c(NC(=O)OC(C)C)c2=O)c(OC)c1 [compound 007]	23.31	8.11e+09	48.67	1.188e+10	52.02	1.222e+10
COc1ccc(-n2c3cssc-3c(NC(=O)OCC3CCCO3)c2=O)c(OC)c1 (stereo not drawn) [compound 012]	34.02	9.03e+09	38.98	1.146e+10	49.07	1.201e+10
COc1ccc(-n2c3cssc-3c(NC(=O)N3CCOCC3)c2=O)c(OC)c1 [compound 023]	26.86	7.86e+09	56.66	2.234e+10	77.31	2.998e+10
CCCOC(=O)Nc1c2sscc-2n(-c2ccc(OC)cc2OC)c1=O [compound 009]	23.62	9.01e+09	27.46	1.39e+10	47.78	1.421e+10
CCCCCCCOC(=O)Nc1c2sscc-2n(-c2ccc(OC)cc2OC)c1=O [compound 015]	20.76	7.46e+09	25.65	1.156e+10	38.87	1.334e+10
COc1ccc(-n2c3cssc-3c(NC(=O)OCCCl)c2=O)c(OC)c1 [compound 016]	18.79	7.34e+09	40.47	1.047e+10	45.76	1.156e+10
CCCCOC(=O)Nc1c2sscc-2n(-c2ccc(OC)cc2OC)c1=O [compound 013]	25.6	6.36e+09	48.76	1.269e+10	52.84	1.329e+10
COC(=O)Nc1c2sscc-2n(-c2ccc(OC)cc2OC)c1=O [compound 005]	26.46	8.08e+09	35.55	8.76e+09	46.65	8.64e+09
